The nature of experiment [1]: microbe, parasite or virus in culture. As to conditions: Mycobacterium tuberculosis, 96 h, read-out: pIC50 (converted).
Experiment [2] in a line: microbe, parasite or virus in culture. Conditions: Mycobacterium tuberculosis, 72 h, read-out: pIC50 (converted).

Regarding `CC(C)(C)Cc1nnc(NCc2ccsc2)o1`, the IC50 is 12.5 µM in experiment [1] and more than 50.1 µM in experiment [2].

For the molecule `O=C(NCCCn1ncc2ccccc21)C1CC1`, the IC50 in experiment [1] is 147 µM; in experiment [2], 150 µM.

Turning to `c1ccc(-c2noc(CN3CCCC3)n2)cc1`, the IC50 in experiment [1] is 82.1 µM; in experiment [2], 63.9 µM.

Regarding `Cc1nc(N(C)C/C=C/c2ccccc2)c2cnn(C)c2n1`, the IC50 in experiment [1] and in experiment [2] was more than 50.1 µM in each case.

In the case of `COCCNC(=O)c1cc(-c2cccc(O)c2)on1`, the IC50 is 157 µM in experiment [1] and 231 µM in experiment [2].

Consider `Cc1noc(-c2c[nH]nc2C2CCCN2C(=O)c2ccccc2)c1C` (centres undefined), for which the IC50 in experiment [1] and in experiment [2] was more than 50.1 µM each time.

For `Cc1ccc(-c2noc([C@@H]3Cc4nc[nH]c4CN3)n2)cc1`, the results for the IC50 in experiment [1] and in experiment [2] were 2.31 µM and 1.94 µM, respectively.

Take `O=C(c1cnsn1)N1CC=C(c2ccccc2)CC1`: the IC50 in experiment [1] is 237 µM; in experiment [2] it was 35.1 µM.

Take `Cc1nc(CNC(=O)CC2=CCCCC2)no1`: the IC50 in experiment [1] and in experiment [2] was more than 501 µM each time.

For the molecule `CC(C)NCc1nc(-c2ccc3c(c2)OCO3)c[nH]1`, the IC50 in experiment [1] and in experiment [2] was more than 50.1 µM throughout.

`COC(=O)c1ccc(N2CCC(C(O)c3ccccc3)CC2)nn1` (centres undefined): the IC50 is 20.5 µM in experiment [1] and 24.3 µM in experiment [2].

As to `COCCC(C)NC(=O)Nc1ccc(C#N)cc1` (centres undefined), the figures for the IC50 in experiment [1] and in experiment [2] were 159 µM and 232 µM, respectively.

As to `COCCC(=O)N1CCC(Nc2ncccc2Br)CC1`, the results for the IC50 in experiment [1] and in experiment [2] were 288 µM and more than 501 µM, respectively.

For the molecule `NC(=O)c1cc(S(=O)(=O)NCCc2ccccc2)cs1`, the IC50 in experiment [1] is more than 501 µM; in experiment [2], 247 µM.

Regarding `Cc1ccc(CN(Cc2ccncc2)C2CCN(C)CC2)s1`, the IC50 in experiment [1] and in experiment [2] was more than 50.1 µM each time.

Take `Cc1ccc(C(=O)CCN2CCOCC2C(N)=O)cc1` (centres undefined): the values for the IC50 in experiment [1] and in experiment [2] were 152 µM and 59 µM, respectively.

`COCC(=O)NC(C)Cc1cccc(Cl)c1` (centres undefined): the IC50 was 18.5 µM in experiment [1] and 11.2 µM in experiment [2].

For `CC(C)(N)C(O)c1ccc(Br)cc1` (centres undefined), the values for the IC50 in experiment [1] and in experiment [2] were more than 501 µM and 126 µM, respectively.

As for `O=C(Nc1cc(F)cc(F)c1)c1ccncc1`, the IC50 in experiment [1] was more than 501 µM; in experiment [2], 224 µM.

Turning to `CC(C)c1cc(C(=O)N2CC(c3ccccn3)C2)no1`, the IC50 in experiment [1] is 60.5 µM; in experiment [2], 70.5 µM.

Turning to `O=C(c1cc2c([nH]c1=O)CCC2)N1CCCC1c1ccccc1` (centres undefined), the IC50 in experiment [1] and in experiment [2] was more than 50.1 µM each time.

With `CCn1nnc(NCc2ccccc2OCc2ccc(Cl)cc2)n1`, the IC50 in experiment [1] was 0.308 µM; in experiment [2], more than 50.1 µM.

For `Cc1cc(N2CCN(C(=O)Cc3ccc4c(c3)OCO4)CC2)cc(C)n1`, the IC50 in experiment [1] and in experiment [2] was more than 50.1 µM in each case.

On to `CN(C)C(=O)CSc1nnc(C(F)(F)F)s1`, for which the IC50 in experiment [1] was 305 µM; in experiment [2] it was 487 µM.

`O=S(=O)(NCCNc1ccc(-n2cccn2)nn1)c1ccccc1`: the IC50 was 15.9 µM in experiment [1] and 24.9 µM in experiment [2].

Take `COc1ccc(C)cc1CN1CCn2cccc2C1C` (centres undefined): the IC50 was 45.6 µM in experiment [1] and 18.5 µM in experiment [2].

Turning to `COc1ccc(C(=O)NC2COc3ccccc3C2)cc1OCC(=O)O` (centres undefined), the IC50 in experiment [1] is 26 µM; in experiment [2], more than 50.1 µM.

Take `CCC1(CC)CCCN(C(=O)CS(=O)(=O)CC)CC1`: the IC50 in experiment [1] is 50.9 µM; in experiment [2], 72.7 µM.

On to `COC(=O)CCNS(=O)(=O)c1ccc(OC)cc1`, for which the IC50 in experiment [1] and in experiment [2] was more than 501 µM in each case.

Turning to `COc1cccc(CN2CCC3(CC2)OCC(C)O3)c1` (centres undefined), the IC50 in experiment [1] was 244 µM; in experiment [2], 394 µM.

For `CC[C@H](N)C(=O)N(C)Cc1cccc(OC(F)(F)F)c1`, the IC50 in experiment [1] is more than 501 µM; in experiment [2], 199 µM.

For `CN(C)S(=O)(=O)NCCNc1cccc(Br)c1`, the figures for the IC50 in experiment [1] and in experiment [2] were 208 µM and 154 µM, respectively.

For the molecule `COCc1ccccc1CNC(=O)c1nc(C)ns1`, the IC50 in experiment [1] was 145 µM; in experiment [2], 488 µM.

On to `O=c1c2sccc2nc2n1CCN(Cc1ccccc1C(F)(F)F)CC2`, for which the IC50 in experiment [1] and in experiment [2] was more than 50.1 µM each time.

For the molecule `Ic1nnnn1-c1ccccc1`, the IC50 is 108 µM in experiment [1] and 147 µM in experiment [2].

In the case of `CC1CCCN1C1CCN(CCNS(C)(=O)=O)CC1` (centres undefined), the IC50 in experiment [1] and in experiment [2] was more than 501 µM in each case.

`O=C(NCc1cccs1)c1cnccn1`: the IC50 in experiment [1] was 80.5 µM; in experiment [2] it was 33.9 µM.

Regarding `COc1ccc(NS(=O)(=O)N(C)C)c(Br)c1`, the IC50 in experiment [1] and in experiment [2] was more than 501 µM throughout.

With `NCC(=O)N(Cc1cccs1)Cc1cccs1`, the IC50 in experiment [1] was 68.7 µM; in experiment [2], 114 µM.

Regarding `CSc1c(F)cc(NC(=O)NCCO)cc1F`, the IC50 in experiment [1] and in experiment [2] was more than 501 µM throughout.

For the molecule `N[C@H]1CCN(S(=O)(=O)c2ccc(F)c(C(F)(F)F)c2)C1`, the results for the IC50 in experiment [1] and in experiment [2] were 171 µM and 100 µM, respectively.

For the molecule `NCc1ccncc1OCC(F)(F)F`, the IC50 in experiment [1] and in experiment [2] was more than 501 µM each time.

For the molecule `NS(=O)(=O)c1cccc2c1CCCN2Cc1nccs1`, the IC50 in experiment [1] and in experiment [2] was more than 501 µM throughout.

As to `O=C(NC1=NCCS1)c1sccc1C1CC1`, the IC50 in experiment [1] is 398 µM; in experiment [2], 232 µM.

As to `CC(CNCC(F)(F)CO)c1ccccc1` (centres undefined), the IC50 in experiment [1] and in experiment [2] was more than 501 µM each time.

For `CN(C)CCNC(=O)c1ccn(-c2ccc3ccccn23)n1`, the IC50 in experiment [1] and in experiment [2] was more than 50.1 µM throughout.

As to `CC(=O)Nc1nc(C(=O)NCc2ccc(C)s2)cs1`, the IC50 is 268 µM in experiment [1] and 224 µM in experiment [2].

In the case of `O=C(CNc1cccc(CO)c1)NCc1ccc(Cl)s1`, the results for the IC50 in experiment [1] and in experiment [2] were more than 501 µM and 134 µM, respectively.

Take `CNC(=O)CNC(=O)c1cc2ccccc2cc1OC`: the IC50 in experiment [1] and in experiment [2] was more than 501 µM throughout.

For `NCc1cnn(-c2ccc(Br)cc2)c1`, the IC50 is 196 µM in experiment [1] and 147 µM in experiment [2].

Turning to `Cc1cnc(N2C(=O)CSC2c2ccc(N(C)C)cc2)s1` (centres undefined), the IC50 in experiment [1] is 5.45 µM; in experiment [2], 7.14 µM.

For the molecule `COc1cccc(OC2CNC2)c1`, the IC50 in experiment [1] and in experiment [2] was more than 501 µM throughout.

Consider `CCN1CCN(C(=O)C2CCCOC2)c2ccccc21` (centres undefined), for which the IC50 in experiment [1] is 276 µM; in experiment [2], 158 µM.

Take `O=C(c1cccc2cc[nH]c12)N1CCSCC1`: the IC50 in experiment [1] and in experiment [2] was more than 501 µM each time.

Turning to `Cc1ccc(-c2nc(CNC(C)Cn3cccn3)cs2)o1` (centres undefined), the IC50 in experiment [1] and in experiment [2] was more than 50.1 µM throughout.

Turning to `Cc1nn(CCCN)c(C)c1Br`, the IC50 in experiment [1] is more than 501 µM; in experiment [2], 266 µM.

Take `O=C(NCc1[nH]ncc1Br)Nc1nc2c(s1)COCC2`: the IC50 in experiment [1] is more than 501 µM; in experiment [2], 328 µM.

Turning to `CC(C)(C)OC(=O)N1CCCC1CN` (centres undefined), the IC50 in experiment [1] was 207 µM; in experiment [2] it was 368 µM.

Regarding `Cc1noc(C)c1CNC(=O)c1csc(S(N)(=O)=O)c1`, the IC50 in experiment [1] and in experiment [2] was more than 501 µM in each case.

Take `CCc1cc2c(N3CCCC(c4ccn[nH]4)C3)ncnc2s1` (centres undefined): the IC50 in experiment [1] was 12.6 µM; in experiment [2] it was 9.09 µM.

As for `CCCc1nnc(NC2CCN(C(=O)OCC)CC2)o1`, the IC50 in experiment [1] is 72 µM; in experiment [2], 180 µM.

Take `CCCc1nnc(N2CCC3(CC2)OCC(C)O3)s1` (centres undefined): the IC50 is 45.5 µM in experiment [1] and 34.3 µM in experiment [2].

As to `O=C(NC1CCCc2ccccc21)c1ccncc1` (centres undefined), the IC50 is more than 501 µM in experiment [1] and 146 µM in experiment [2].

For `O=C(OCCNc1ncccn1)c1ccc(Cl)s1`, the figures for the IC50 in experiment [1] and in experiment [2] were more than 50.1 µM and 29.7 µM, respectively.

Turning to `CCC(C)NC(=O)c1cc(F)cc(F)c1` (centres undefined), the values for the IC50 in experiment [1] and in experiment [2] were 229 µM and 130 µM, respectively.

In the case of `O=C(CCn1cccn1)N1CCCCCC1`, the IC50 in experiment [1] is more than 501 µM; in experiment [2] it was 110 µM.

Take `COc1ccc(CNc2ncc(-c3cc(C)no3)c(C(C)C)n2)cc1`: the IC50 in experiment [1] and in experiment [2] was more than 50.1 µM in each case.

Regarding `CC(=O)c1cccc(COC(=O)c2cccnc2)c1`, the IC50 in experiment [1] is 269 µM; in experiment [2] it was 231 µM.

With `CC(C)(C)OC(=O)N1CC(F)(F)CC1CO` (centres undefined), the IC50 in experiment [1] and in experiment [2] was more than 501 µM throughout.

For `c1csc(CSCCNC2=NCCN2)c1`, the IC50 in experiment [1] and in experiment [2] was more than 501 µM in each case.

Consider `COc1ccc(F)cc1C(=O)OCC(=O)NC1CC1`, for which the values for the IC50 in experiment [1] and in experiment [2] were 212 µM and 105 µM, respectively.

As to `Cc1nc(-c2nnc[nH]2)sc1C(=O)N1CCCC1Cn1cccn1` (centres undefined), the IC50 in experiment [1] and in experiment [2] was more than 50.1 µM throughout.

Take `OC(CN1CCn2ccnc2C1)c1cccc(F)c1` (centres undefined): the IC50 in experiment [1] and in experiment [2] was more than 501 µM each time.

Regarding `CCCc1cc(C(=O)NCCCC(=O)N2Cc3ccccc3C2)[nH]n1`, the IC50 in experiment [1] and in experiment [2] was more than 50.1 µM throughout.

Consider `O=C(Oc1nsnc1N1CCCCC1)N1CCOCC1`, for which the IC50 was 432 µM in experiment [1] and 168 µM in experiment [2].

For `CCCC(=O)N(CCCN1CCOCC1)c1nc2c(C)c(C)ccc2s1`, the IC50 in experiment [1] and in experiment [2] was more than 50.1 µM in each case.

Take `CC(C)N(CCOc1cccc(F)c1)CC(N)=O`: the IC50 was 199 µM in experiment [1] and 210 µM in experiment [2].

`CCN(CC)C(=O)CN1CCC2(C=Cc3cc(Cl)c(C)cc3O2)CC1`: the IC50 in experiment [1] is more than 50.1 µM; in experiment [2], 31.4 µM.

In the case of `CC(=O)NCc1noc2c1CN(Cc1ccsc1)CC2`, the IC50 in experiment [1] and in experiment [2] was more than 50.1 µM throughout.

On to `CCS(=O)(=O)N(C)CCCNc1ccc(C)c(C#N)n1`, for which the results for the IC50 in experiment [1] and in experiment [2] were 84.2 µM and 106 µM, respectively.

`COC(=O)C1CCN(C(=O)Cc2cccc(F)c2)CC1`: the IC50 in experiment [1] is more than 501 µM; in experiment [2], 179 µM.

Consider `Cc1ccccc1CN1CCCN(S(=O)(=O)N(C)C2CCCCC2)CC1`, for which the IC50 in experiment [1] and in experiment [2] was more than 50.1 µM in each case.

Source of the values: ChEMBL document CHEMBL3988442, “University of Dundee, Small-Polar-MMV Screening Library” (2021).
